ChEMBL document CHEMBL2401715, “Synthesis, antitumor and antibacterial activities of some novel tetrahydrobenzo[4,5]thieno[2,3-d]pyrimidine derivatives” (Eur J Med Chem, 2013)

Key:
[1] = tested on: Escherichia coli; test: Antibacterial activity against Escherichia coli ATCC 11775 assessed as growth inhibition after 24 to 48 hrs by kirby-bauer disc diffusion method; assay type: functional, DSM 30083 = JCM 1649; note: test concentration or dose not given here
[2] = tested on: Pseudomonas aeruginosa; test: Antibacterial activity against Pseudomonas aeruginosa ATCC 10145 assessed as growth inhibition after 24 to 48 hrs by kirby-bauer disc diffusion method; assay type: functional; note: test concentration or dose not given here
[3] = tested on: HepG2; test: Cytotoxicity against human HepG2 cells assessed as cell survival after 48 hrs by SRB assay; assay type: functional, cell-based; conditions: HepG2, 48 h
[4] = tested on: Staphylococcus aureus; test: Antibacterial activity against Staphylococcus aureus ATCC 12600 assessed as growth inhibition after 24 to 48 hrs by kirby-bauer disc diffusion method; assay type: functional; note: test concentration or dose not given here
[5] = tested on: Bacillus subtilis; test: Antibacterial activity against Bacillus subtilis ATCC 6051 assessed as growth inhibition after 24 to 48 hrs by kirby-bauer disc diffusion method; assay type: functional; note: test concentration or dose not given here
[6] = tested on: MCF7; test: Cytotoxicity against human MCF7 cells assessed as cell survival after 48 hrs by SRB assay; assay type: functional, cell-based; conditions: MCF7, 48 h
[7] = tested on: Staphylococcus aureus; test: Antibacterial activity against Staphylococcus aureus ATCC 12600 assessed as growth inhibition by broth microdilution method; assay type: functional
[8] = tested on: Pseudomonas aeruginosa; test: Antibacterial activity against Pseudomonas aeruginosa ATCC 10145 assessed as growth inhibition by broth microdilution method; assay type: functional

COc1cc(-c2nc3sc4c(c3c(=O)n2-c2cc(=O)[nH]c(=O)[nH]2)CCCC4)cc(OC)c1OC
diameter of the inhibition zone (DIZ) [1]: 14 mm
diameter of the inhibition zone (DIZ) [2]: 14 mm
IC50 [3]: 86.4 µM
diameter of the inhibition zone (DIZ) [4]: 11 mm
diameter of the inhibition zone (DIZ) [5]: 11 mm
IC50 [6]: 83.3 µM

Cc1ccc2sc(-n3c(/C=C/c4ccccc4)nc4sc5c(c4c3=O)CCCC5)nc2c1
diameter of the inhibition zone (DIZ) [1]: 14 mm
diameter of the inhibition zone (DIZ) [2]: 14 mm
IC50 [3]: 36.7 µM
diameter of the inhibition zone (DIZ) [4]: 16 mm
diameter of the inhibition zone (DIZ) [5]: 15 mm
IC50 [6]: 15.8 µM

COc1cc(-c2nc3sc4c(c3c(=O)n2C2CONC2=O)CCCC4)cc(OC)c1OC (configuration not stated)
diameter of the inhibition zone (DIZ) [1]: 17 mm
diameter of the inhibition zone (DIZ) [2]: 14 mm
IC50 [3]: 24.9 µM
diameter of the inhibition zone (DIZ) [4]: 15 mm
diameter of the inhibition zone (DIZ) [5]: 15 mm
IC50 [6]: 54.9 µM

NS(=O)(=O)c1ccc(-n2c(/C=C/c3ccccc3)nc3sc4c(c3c2=O)CCCC4)cc1
diameter of the inhibition zone (DIZ) [1]: 15 mm
diameter of the inhibition zone (DIZ) [2]: 15 mm
IC50 [3]: 1.29 µM
diameter of the inhibition zone (DIZ) [4]: 14 mm
diameter of the inhibition zone (DIZ) [5]: 14 mm
IC50 [6]: 0.43 µM

CC1(C)S[C@@H]2[C@H](NC(=O)[C@H](N)c3ccccc3)C(=O)N2[C@H]1C(=O)O [AMPICILLIN]
MIC [7]: 48 µg/mL
diameter of the inhibition zone (DIZ) [1]: 22 mm
MIC [8]: 56 µg/mL
diameter of the inhibition zone (DIZ) [2]: 17 mm
diameter of the inhibition zone (DIZ) [4]: 18 mm
diameter of the inhibition zone (DIZ) [5]: 20 mm

COc1cc(-c2nc3sc4c(c3c(=O)n2-c2nc3cc([N+](=O)[O-])ccc3s2)CCCC4)cc(OC)c1OC
diameter of the inhibition zone (DIZ) [1]: 15 mm
diameter of the inhibition zone (DIZ) [2]: 14 mm
IC50 [3]: 36.9 µM
diameter of the inhibition zone (DIZ) [4]: 15 mm
diameter of the inhibition zone (DIZ) [5]: 14 mm
IC50 [6]: 21.6 µM

C/C(=C\c1ccccc1)c1nc2sc3c(c2c(=O)[nH]1)CCCC3
diameter of the inhibition zone (DIZ) [1]: 0 mm
diameter of the inhibition zone (DIZ) [2]: 0 mm
IC50 [3]: 33.2 µM
diameter of the inhibition zone (DIZ) [4]: 0 mm
diameter of the inhibition zone (DIZ) [5]: 0 mm
IC50 [6]: 24.8 µM

Cc1c2ccc(N)cc2nc2cc(Nc3nc(/C=C/c4ccccc4)nc4sc5c(c34)CCCC5)ccc12
diameter of the inhibition zone (DIZ) [1]: 12 mm
diameter of the inhibition zone (DIZ) [2]: 12 mm
IC50 [3]: 1.36 µM
diameter of the inhibition zone (DIZ) [4]: 21 mm
diameter of the inhibition zone (DIZ) [5]: 20 mm
IC50 [6]: 0.58 µM

NC(=O)n1c(/C=C/c2ccccc2)nc2sc3c(c2c1=O)CCCC3
diameter of the inhibition zone (DIZ) [1]: 14 mm
diameter of the inhibition zone (DIZ) [2]: 15 mm
IC50 [3]: 18.5 µM
diameter of the inhibition zone (DIZ) [4]: 16 mm
diameter of the inhibition zone (DIZ) [5]: 14 mm
IC50 [6]: 13.4 µM

O=C(O)C(Cc1cc2ccccc2[nH]1)n1c(/C=C/c2ccccc2)nc2sc3c(c2c1=O)CCCC3 (configuration not stated)
diameter of the inhibition zone (DIZ) [1]: 0 mm
diameter of the inhibition zone (DIZ) [2]: 0 mm
IC50 [3]: 29.7 µM
diameter of the inhibition zone (DIZ) [4]: 0 mm
diameter of the inhibition zone (DIZ) [5]: 0 mm
IC50 [6]: > 202 µM

COc1cc(-c2nc3sc4c(c3c(=O)n2C(Cc2cc3ccccc3[nH]2)C(=O)O)CCCC4)cc(OC)c1OC (configuration not stated)
diameter of the inhibition zone (DIZ) [1]: 0 mm
diameter of the inhibition zone (DIZ) [2]: 0 mm
IC50 [3]: 30.9 µM
diameter of the inhibition zone (DIZ) [4]: 0 mm
diameter of the inhibition zone (DIZ) [5]: 0 mm
IC50 [6]: > 179 µM

COc1cc(-c2nc3sc4c(c3c(=O)n2-c2ccc(C(=O)O)cc2)CCCC4)cc(OC)c1OC
diameter of the inhibition zone (DIZ) [1]: 10 mm
diameter of the inhibition zone (DIZ) [2]: 10 mm
IC50 [3]: 29.6 µM
diameter of the inhibition zone (DIZ) [4]: 11 mm
diameter of the inhibition zone (DIZ) [5]: 12 mm
IC50 [6]: > 203 µM

COc1cc(-c2nc3sc4c(c3c(=O)n2-c2ccc(S(N)(=O)=O)cc2)CCCC4)cc(OC)c1OC
diameter of the inhibition zone (DIZ) [1]: 12 mm
diameter of the inhibition zone (DIZ) [2]: 13 mm
IC50 [3]: > 190 µM
diameter of the inhibition zone (DIZ) [4]: 9 mm
diameter of the inhibition zone (DIZ) [5]: 14 mm
IC50 [6]: 37.1 µM

O=C(O)C(Cc1ccccc1)n1c(/C=C/c2ccccc2)nc2sc3c(c2c1=O)CCCC3 (configuration not stated)
diameter of the inhibition zone (DIZ) [1]: 14 mm
diameter of the inhibition zone (DIZ) [2]: 14 mm
IC50 [3]: 31.5 µM
diameter of the inhibition zone (DIZ) [4]: 16 mm
diameter of the inhibition zone (DIZ) [5]: 13 mm
IC50 [6]: 45.3 µM

O=c1c2c3c(sc2nc(/C=C/c2ccccc2)n1-c1nc2ccccc2s1)CCCC3
diameter of the inhibition zone (DIZ) [1]: 13 mm
diameter of the inhibition zone (DIZ) [2]: 14 mm
IC50 [3]: 10.6 µM
diameter of the inhibition zone (DIZ) [4]: 16 mm
diameter of the inhibition zone (DIZ) [5]: 13 mm
IC50 [6]: 4.3 µM

NC(=S)n1c(/C=C/c2ccccc2)nc2sc3c(c2c1=O)CCCC3
diameter of the inhibition zone (DIZ) [1]: 13 mm
diameter of the inhibition zone (DIZ) [2]: 13 mm
IC50 [3]: 17.7 µM
diameter of the inhibition zone (DIZ) [4]: 14 mm
diameter of the inhibition zone (DIZ) [5]: 13 mm
IC50 [6]: 10.6 µM

COc1cc(-c2nc(NC(=O)NO)c3c4c(sc3n2)CCCC4)cc(OC)c1OC
diameter of the inhibition zone (DIZ) [1]: 0 mm
diameter of the inhibition zone (DIZ) [2]: 0 mm
IC50 [3]: 2.32 µM
diameter of the inhibition zone (DIZ) [4]: 0 mm
diameter of the inhibition zone (DIZ) [5]: 0 mm
IC50 [6]: 14.2 µM

O=C1NOCC1n1c(/C=C/c2ccccc2)nc2sc3c(c2c1=O)CCCC3 (configuration not stated)
diameter of the inhibition zone (DIZ) [1]: 15 mm
diameter of the inhibition zone (DIZ) [2]: 16 mm
IC50 [3]: 6.86 µM
diameter of the inhibition zone (DIZ) [4]: 19 mm
diameter of the inhibition zone (DIZ) [5]: 15 mm
IC50 [6]: 39.4 µM

COc1cccc2c1C(=O)c1c(O)c3c(c(O)c1C2=O)C[C@@](O)(C(=O)CO)C[C@@H]3O[C@H]1C[C@H](N)[C@H](O)[C@H](C)O1 [DOXORUBICIN]
IC50 [3]: 7.36 µM

COc1cc(-c2nc3sc4c(c3c(=O)n2-c2nc3ccccc3s2)CCCC4)cc(OC)c1OC
diameter of the inhibition zone (DIZ) [1]: 15 mm
diameter of the inhibition zone (DIZ) [2]: 15 mm
IC50 [3]: 5.14 µM
diameter of the inhibition zone (DIZ) [4]: 14 mm
diameter of the inhibition zone (DIZ) [5]: 13 mm
IC50 [6]: 11.5 µM

O=c1cc(-n2c(/C=C/c3ccccc3)nc3sc4c(c3c2=O)CCCC4)[nH]c(=O)[nH]1
diameter of the inhibition zone (DIZ) [1]: 15 mm
diameter of the inhibition zone (DIZ) [2]: 15 mm
IC50 [3]: 67.2 µM
diameter of the inhibition zone (DIZ) [4]: 18 mm
diameter of the inhibition zone (DIZ) [5]: 16 mm
IC50 [6]: 11.2 µM

O=C(NO)Nc1nc(/C=C/c2ccccc2)nc2sc3c(c12)CCCC3
diameter of the inhibition zone (DIZ) [1]: 10 mm
diameter of the inhibition zone (DIZ) [2]: 12 mm
IC50 [3]: 3.27 µM
diameter of the inhibition zone (DIZ) [4]: 10 mm
diameter of the inhibition zone (DIZ) [5]: 11 mm
IC50 [6]: 6.54 µM

COc1cc(-c2nc3sc4c(c3c(=O)n2C(Cc2ccccc2)C(=O)O)CCCC4)cc(OC)c1OC (configuration not stated)
diameter of the inhibition zone (DIZ) [1]: 13 mm
diameter of the inhibition zone (DIZ) [2]: 13 mm
IC50 [3]: 19.4 µM
diameter of the inhibition zone (DIZ) [4]: 10 mm
diameter of the inhibition zone (DIZ) [5]: 12 mm
IC50 [6]: 50.1 µM

O=c1c2c3c(sc2nc(/C=C/c2ccccc2)n1-c1nc2cc([N+](=O)[O-])ccc2s1)CCCC3
diameter of the inhibition zone (DIZ) [1]: 14 mm
diameter of the inhibition zone (DIZ) [2]: 15 mm
IC50 [3]: 10.3 µM
diameter of the inhibition zone (DIZ) [4]: 15 mm
diameter of the inhibition zone (DIZ) [5]: 14 mm
IC50 [6]: 1.23 µM

COc1cc(-c2nc3sc4c(c3c(=O)n2C(N)=S)CCCC4)cc(OC)c1OC
diameter of the inhibition zone (DIZ) [1]: 14 mm
diameter of the inhibition zone (DIZ) [2]: 13 mm
IC50 [3]: > 232 µM
diameter of the inhibition zone (DIZ) [4]: 12 mm
diameter of the inhibition zone (DIZ) [5]: 12 mm
IC50 [6]: 77.6 µM

O=C(NO)n1c(/C=C/c2ccccc2)nc2sc3c(c2c1=O)CCCC3
diameter of the inhibition zone (DIZ) [1]: 13 mm
diameter of the inhibition zone (DIZ) [2]: 14 mm
IC50 [3]: 52 µM
diameter of the inhibition zone (DIZ) [4]: 15 mm
diameter of the inhibition zone (DIZ) [5]: 12 mm
IC50 [6]: 23.9 µM

COc1cc(-c2nc3sc4c(c3c(=O)n2-c2nc3cc(C)ccc3s2)CCCC4)cc(OC)c1OC
diameter of the inhibition zone (DIZ) [1]: 12 mm
diameter of the inhibition zone (DIZ) [2]: 12 mm
IC50 [3]: > 192 µM
diameter of the inhibition zone (DIZ) [4]: 14 mm
diameter of the inhibition zone (DIZ) [5]: 11 mm
IC50 [6]: 65.6 µM

COc1cc(-c2nc3sc4c(c3c(=O)n2C(=O)NO)CCCC4)cc(OC)c1OC
diameter of the inhibition zone (DIZ) [1]: 14 mm
diameter of the inhibition zone (DIZ) [2]: 13 mm
IC50 [3]: 14.4 µM
diameter of the inhibition zone (DIZ) [4]: 12 mm
diameter of the inhibition zone (DIZ) [5]: 13 mm
IC50 [6]: 71.2 µM

O=c1[nH]c(/C=C/c2ccccc2)nc2sc3c(c12)CCCC3
diameter of the inhibition zone (DIZ) [1]: 0 mm
diameter of the inhibition zone (DIZ) [2]: 0 mm
IC50 [3]: 12 µM
diameter of the inhibition zone (DIZ) [4]: 0 mm
diameter of the inhibition zone (DIZ) [5]: 0 mm
IC50 [6]: 28.2 µM

O=C(O)c1ccc(-n2c(/C=C/c3ccccc3)nc3sc4c(c3c2=O)CCCC4)cc1
diameter of the inhibition zone (DIZ) [1]: 16 mm
diameter of the inhibition zone (DIZ) [2]: 14 mm
IC50 [3]: 36.9 µM
diameter of the inhibition zone (DIZ) [4]: 19 mm
diameter of the inhibition zone (DIZ) [5]: 14 mm
IC50 [6]: 45.3 µM

COc1cc(-c2nc3sc4c(c3c(=O)n2C(N)=O)CCCC4)cc(OC)c1OC
diameter of the inhibition zone (DIZ) [1]: 16 mm
diameter of the inhibition zone (DIZ) [2]: 17 mm
IC50 [3]: 25.8 µM
diameter of the inhibition zone (DIZ) [4]: 16 mm
diameter of the inhibition zone (DIZ) [5]: 16 mm
IC50 [6]: 26.2 µM

O=c1[nH]c(/C=C/c2ccccc2[N+](=O)[O-])nc2sc3c(c12)CCCC3
diameter of the inhibition zone (DIZ) [1]: 10 mm
diameter of the inhibition zone (DIZ) [2]: 0 mm
IC50 [3]: 11.9 µM
diameter of the inhibition zone (DIZ) [4]: 0 mm
diameter of the inhibition zone (DIZ) [5]: 0 mm
IC50 [6]: 11.9 µM
